Measurements as given in BindingDB's records for patent US20240150287 (Hangzhou Apeloa Medicine Research Institute Co., 2024).
pIC50: −log10 of the molar value.

Biological target: T1, Mucosal addressin cell adhesion molecule 1/Integrin alpha-4/beta-7 (Homo sapiens, UniProt P13612+P26010+Q13477)
T1 sequence (P13612 whole entry): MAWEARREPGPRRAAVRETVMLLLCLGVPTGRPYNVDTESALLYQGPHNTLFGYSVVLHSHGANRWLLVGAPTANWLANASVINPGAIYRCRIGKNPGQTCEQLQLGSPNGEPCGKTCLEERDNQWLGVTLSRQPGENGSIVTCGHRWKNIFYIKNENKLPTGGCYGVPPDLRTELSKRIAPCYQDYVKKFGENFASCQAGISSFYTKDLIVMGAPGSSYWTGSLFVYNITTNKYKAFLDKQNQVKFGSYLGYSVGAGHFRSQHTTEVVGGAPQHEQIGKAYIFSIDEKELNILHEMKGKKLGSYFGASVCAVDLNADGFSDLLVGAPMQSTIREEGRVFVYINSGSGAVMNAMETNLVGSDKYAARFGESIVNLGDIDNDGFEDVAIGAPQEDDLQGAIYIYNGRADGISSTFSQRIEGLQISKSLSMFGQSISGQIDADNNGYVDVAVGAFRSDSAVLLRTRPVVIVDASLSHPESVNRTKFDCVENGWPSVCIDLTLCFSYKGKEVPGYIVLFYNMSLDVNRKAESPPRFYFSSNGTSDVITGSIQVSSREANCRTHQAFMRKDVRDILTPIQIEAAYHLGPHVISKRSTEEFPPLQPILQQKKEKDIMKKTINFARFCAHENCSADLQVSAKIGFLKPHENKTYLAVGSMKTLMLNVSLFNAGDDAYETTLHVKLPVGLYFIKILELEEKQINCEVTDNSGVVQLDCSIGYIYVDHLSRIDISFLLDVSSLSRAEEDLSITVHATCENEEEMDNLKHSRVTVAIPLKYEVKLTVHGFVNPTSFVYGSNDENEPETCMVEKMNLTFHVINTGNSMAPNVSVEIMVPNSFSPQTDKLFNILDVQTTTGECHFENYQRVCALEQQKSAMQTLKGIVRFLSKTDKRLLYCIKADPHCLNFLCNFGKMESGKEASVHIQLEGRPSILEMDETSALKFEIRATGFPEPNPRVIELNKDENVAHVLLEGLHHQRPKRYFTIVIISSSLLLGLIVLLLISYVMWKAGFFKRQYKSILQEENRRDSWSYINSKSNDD
T1 sequence (P26010 whole entry): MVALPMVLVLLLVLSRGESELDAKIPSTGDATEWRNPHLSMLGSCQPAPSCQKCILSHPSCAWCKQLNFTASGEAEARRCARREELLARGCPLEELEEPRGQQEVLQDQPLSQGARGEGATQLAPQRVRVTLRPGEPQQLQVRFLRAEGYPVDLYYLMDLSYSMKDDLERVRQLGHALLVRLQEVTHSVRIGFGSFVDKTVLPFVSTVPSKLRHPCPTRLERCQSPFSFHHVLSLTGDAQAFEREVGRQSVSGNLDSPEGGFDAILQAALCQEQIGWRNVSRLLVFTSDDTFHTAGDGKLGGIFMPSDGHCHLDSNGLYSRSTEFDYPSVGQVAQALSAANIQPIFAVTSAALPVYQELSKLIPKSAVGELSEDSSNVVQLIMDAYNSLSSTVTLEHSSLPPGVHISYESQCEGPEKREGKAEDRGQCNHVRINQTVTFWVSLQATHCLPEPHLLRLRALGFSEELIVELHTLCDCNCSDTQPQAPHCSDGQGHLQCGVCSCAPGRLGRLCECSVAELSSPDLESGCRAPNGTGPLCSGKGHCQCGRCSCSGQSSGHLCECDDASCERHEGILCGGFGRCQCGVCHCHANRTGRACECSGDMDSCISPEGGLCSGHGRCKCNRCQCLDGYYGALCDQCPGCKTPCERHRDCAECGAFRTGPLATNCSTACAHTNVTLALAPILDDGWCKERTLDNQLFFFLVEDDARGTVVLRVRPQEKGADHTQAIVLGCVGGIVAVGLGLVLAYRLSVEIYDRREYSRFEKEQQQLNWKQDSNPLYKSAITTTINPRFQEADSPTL
T1 sequence (Q13477 whole entry): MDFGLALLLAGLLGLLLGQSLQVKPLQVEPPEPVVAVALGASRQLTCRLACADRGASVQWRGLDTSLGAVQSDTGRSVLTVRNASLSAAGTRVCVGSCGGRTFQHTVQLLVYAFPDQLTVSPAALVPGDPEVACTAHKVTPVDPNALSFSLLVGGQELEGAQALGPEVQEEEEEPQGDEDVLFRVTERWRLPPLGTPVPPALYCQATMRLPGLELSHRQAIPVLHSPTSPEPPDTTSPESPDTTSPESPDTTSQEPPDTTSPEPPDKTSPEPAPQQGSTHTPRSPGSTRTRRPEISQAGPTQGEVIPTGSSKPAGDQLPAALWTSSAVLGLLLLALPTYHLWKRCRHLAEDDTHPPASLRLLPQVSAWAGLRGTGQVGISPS
Test: BINDING INHIBITION ACTIVITY EVALUATION TEST
Method: Coat the 96-well microplate (Costar) with 50 μL of recombinant human MAdCAM-1 (R&D Systems) solution per well, and incubate overnight (12-18 hours) at 4° C. Wash three times with 150 μL of TBS buffer per well. Block plate with 150 μL per well with blocking buffer for 1 h at 37° C. Wash three times with 150 μL of TBS buffer per well. Dilute the recombinant human integrin α4β7 (R&D Systems) with TBS buffer containing 0.1% bovine serum albumin (BSA), then add to the 96 well plate with 50 μL per well. Add 1 μL of test compound or DMSO, cover, incubate at room temperature for 2 h, wash three times with 150 μL of TBS buffer per well. Dilute the anti-β7 antibody (R&D Systems) with 0.1% BSA TBS buffer, then add to the 96 well plate with 50 μL per well, cover, incubate at room temperature for 1 h, wash three times with 150 μL of TBS buffer per well. Add 50 μL of streptavidin-HRP (R&D Systems) per well, incubate at room temperature for 20 min, wash three times with 150 μL of TBS buffer per well. Add 50 μL of TMB substrate solution (Sigma) per well, incubate at room temperature for 5-30 min, and add 25 μL of stop solution per well to stop the reaction. Finally, measure absorbance at 450 nm with microplate reader (SpectraMax 340PC. Molecular Devices). Repeat the test to find the binding rate […] at each concentration when the absorbance of the well without the test substance is used as 100%, and calculate the concentration IC50 that causes 50% binding inhibition.

Question: How did the pIC50 turn out when `COC(=O)[C@H](Cc1ccc(-n2c(=O)n(C)c3ccc(N(C)C)cc32)cc1)NC(c1ccccc1)(c1ccccc1)c1ccccc1` [US20240150287, Example 36] was run?
Answer: 8.82

Question: With `COC(=O)[C@H](Cc1ccc(-n2c(=O)n(C)c3cc(N(C)C)ccc32)cc1)NC(c1ccccc1)(c1ccccc1)c1ccccc1` [US20240150287, Example 37] as the molecule, how does the pIC50 read?
Answer: 8.29

Question: With `COC(=O)[C@H](Cc1ccc(-n2c(=O)n(C)c3cccc(Cl)c32)cc1)NC(=O)c1c(Cl)cc(Cl)cc1Cl` [US20240150287, Example 38] as the molecule, how does the pIC50 read?
Answer: 7.55

Question: How did the pIC50 turn out when `COC(=O)[C@H](Cc1ccc(-n2c(=O)n(C)c3cccc(Cl)c32)cc1)NC(=O)c1c(Cl)cc(N2CCOCC2)cc1Cl` [US20240150287, Example 39] was run?
Answer: 8.44
